The target of data set [1] is T1, bovine serum albumin (BSA) (Bos taurus, UniProt P02769).
T1 construct: purchased Sigma-Aldrich (St. Louis, MO)
The experiment in a line: Label-free differential scanning fluorimetry, equilibrium-based binding model near BSA melting temperature. The following applies: for Ka (association constant): 61 °C, 10 μM BSA in pH 7.4 PBS, fit to Eqs. (1) and (2), standard error in parentheses. The method, then: (§1) Bovine serum albumin (lyophilized powder, 99% fatty acid free) was obtained from Sigma-Aldrich (St. Louis, MO). A BSA concentration of 10 μM in pH 7.4 phosphate buffered saline (PBS) was used in each experiment. The solution of BSA was kept at 4 °C prior to use.
Experiments were conducted using a Tycho NT.6 differential scanning fluorimeter (NanoTemper, Munich, Germany). […] Solutions were prepared a day in advance of the experiment and stored at 4 °C. Immediately prior to analysis, each sample was loaded into a 1 mm diameter glass capillary and placed in the instrument. […] Fluorescence intensity was measured at 0.1 °C intervals at emission wavelengths of 330 and 350 nm. The ratio of the intensity at these wavelengths, I350/I330, was used to account for blue shifts in the emission peak wavelengths with increasing temperature. The minimum value of the first derivative of the I350/I330 curve with respect to temperature, denoting the midpoint of the melting transition where the fraction of folded to unfolded protein is 1, was taken as the melting temperature Tm. Each experiment was performed in triplicate.
As described by Eftink and Ghiron[44], baseline subtraction of the raw fluorescence intensity data collected at 350 nm was performed at both high and low temperatures. The plots were then normalized by dividing by the maximum intensity value.
The term fU is the fraction of unfolded protein based on the concentration of unfolded protein, [U], divided by the total protein, [P]t, which is the sum of [U], folded protein [F], and folded protein with bound ligand [FL]. [L] is the total free ligand by correcting the total ligand concentration, [L]t, which is a main benefit of this model. KU represents the equilibrium between folded and unfolded protein, and Kd is the ligand dissociation constant from the bound to unbound states.3 Kd=Ka-1=F[L]/[FL]
Background: Differential scanning fluorimetry follows unfolding on heating by fluorescence.

On the set-up of data set [2]: method as in PMID 29185060. The following applies: octanol/water, EPA CompTox Chemicals Dashboard; cited from earlier work.
Details of data set [3]: method as in PMID 29185060. The settings on record: octanol/water; experimental average (in parentheses), EPA CompTox Chemicals Dashboard; cited from earlier work.
Data set [4] deals with T1, bovine serum albumin (BSA). Put plainly: Label-free differential scanning fluorimetry, BSA melting temperature shift (protein stabilization). Type of data set: binding. The settings on record: for Stabilizing effect on BSA folded structure (ΔTm): ligand:BSA ratios 0:1 to 4:1, 10 μM BSA, pH 7.4 PBS. The procedure:
as §1
Experiments were conducted using a Tycho NT.6 differential scanning fluorimeter (NanoTemper, Munich, Germany). PFAS was added to 2 mL of the stock BSA solution to obtain the PFAS:BSA or FA:BSA ratios of 0:1, 0.5:1, 1:1, 2:1, 3:1, and 4:1. Solutions were prepared a day in advance of the experiment and stored at 4 °C. Immediately prior to analysis, each sample was loaded into a 1 mm diameter glass capillary and placed in the instrument. […] Fluorescence intensity was measured at 0.1 °C intervals at emission wavelengths of 330 and 350 nm. The ratio of the intensity at these wavelengths, I350/I330, was used to account for blue shifts in the emission peak wavelengths with increasing temperature. The minimum value of the first derivative of the I350/I330 curve with respect to temperature, denoting the midpoint of the melting transition where the fraction of folded to unfolded protein is 1, was taken as the melting temperature Tm. Each experiment was performed in triplicate.

Another data set relates to cattle. The following applies: varies by sex; cited from earlier work.
For data set [5], the target named is T1, bovine serum albumin (BSA). The experiment in a line: Tryptophan fluorescence quenching from DSF, Hill adsorption model. Type of data set: binding. The settings on record: 35 °C to 50 °C. The procedure:
as §1
Experiments were conducted using a Tycho NT.6 differential scanning fluorimeter (NanoTemper, Munich, Germany). PFAS was added to 2 mL of the stock BSA solution to obtain the PFAS:BSA or FA:BSA ratios of 0:1, 0.5:1, 1:1, 2:1, 3:1, and 4:1. Solutions were prepared a day in advance of the experiment and stored at 4 °C. Immediately prior to analysis, each sample was loaded into a 1 mm diameter glass capillary and placed in the instrument. Thermal scans were conducted from 35 to 95 °C at a scan rate of […] with a 285 nm excitation wavelength. Fluorescence intensity was measured at 0.1 °C intervals at emission wavelengths of 330 and 350 nm. The ratio of the intensity at these wavelengths, I350/I330, was used to account for blue shifts in the emission peak wavelengths with increasing temperature. The minimum value of the first derivative of the I350/I330 curve with respect to temperature, denoting the midpoint of the melting transition where the fraction of folded to unfolded protein is 1, was taken as the melting temperature Tm. Each experiment was performed in triplicate. The same procedure was used for the control ligand warfarin.
The Hill model has been used to correct for the presence of a fluorescent protein–ligand complex and binding cooperativity[21],[34].4 I0-I/I0-Ires=KHillQ^nHill/1+KHillQ^nHill
I0 and I are the fluorescence intensity of BSA in the absence and presence of the ligand and Ires accounts for residual fluorescence at infinite quencher concentration. KHill and nHill are the Hill binding constant and the cooperativity constant, respectively, and [Q] is the concentration of added quencher (PFAS or FA).

[6] abbreviates: ligand:BSA ratio up to 4:1, native protein Tm 62 °C.

Molecules are shown by their SMILES. Read-outs that look alike come from different tables or passages of the source.

T1 sequence (P02769 25-607): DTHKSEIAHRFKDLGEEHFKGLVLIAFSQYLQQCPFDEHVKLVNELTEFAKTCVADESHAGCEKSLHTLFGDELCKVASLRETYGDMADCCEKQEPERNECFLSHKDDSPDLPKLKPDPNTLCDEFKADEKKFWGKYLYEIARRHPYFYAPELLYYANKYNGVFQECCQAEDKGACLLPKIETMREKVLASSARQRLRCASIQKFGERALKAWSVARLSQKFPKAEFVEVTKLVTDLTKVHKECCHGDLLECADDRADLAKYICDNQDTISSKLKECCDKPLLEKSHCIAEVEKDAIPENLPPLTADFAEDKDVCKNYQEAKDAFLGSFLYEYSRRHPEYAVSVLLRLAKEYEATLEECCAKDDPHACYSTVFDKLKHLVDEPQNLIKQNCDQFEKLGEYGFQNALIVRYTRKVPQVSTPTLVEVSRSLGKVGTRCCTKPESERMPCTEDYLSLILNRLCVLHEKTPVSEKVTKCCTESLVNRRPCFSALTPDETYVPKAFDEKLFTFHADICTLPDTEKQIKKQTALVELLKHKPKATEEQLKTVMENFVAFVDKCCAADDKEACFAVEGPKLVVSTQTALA

By Kd is commonly meant the constant that tells how readily two partners part at equilibrium. For the compound `CCCCCCCCC(=O)O` [NA, Nonanoic acid], the Kd in data set [1] was 0.341 µM. Also, the “Log Kow (predicted average)” value in data set [2] is recorded as 3.41. The “Log Kow (experimental average)” value in data set [3] is 3.42.
With `O=S(=O)(O)C(F)(F)C(F)(F)C(F)(F)C(F)(F)C(F)(F)C(F)(F)F` [PFHxS, Sodium perfluorohexanesulfonate], in data set [1], binding was put at a Kd of 10.6 µM. Further, the “Tm of BSA with ligand” value in data set [4] (setting [6]) fell in the range of 69 to 71 °C. For the same compound, the “Stabilizing effect on BSA folded structure (ΔTm)” value in data set [4] is given as “greatest stabilizing effect”. Also, the “Log Kow (predicted average)” value in data set [2] is 2.91.
Regarding `CCCCCCCCCC(=O)O` [DA, Decanoic acid], the Kd in data set [1] is 27.6 µM. For the same compound, the “Log Kow (predicted average)” value in data set [2] is recorded as 4.03.
In general, half-life refers to the time in which the quantity being followed falls by half. `O=S(=O)(O)C(F)(F)C(F)(F)C(F)(F)C(F)(F)C(F)(F)C(F)(F)C(F)(F)C(F)(F)F` [PFOS, Sodium perfluorooctanesulfonate]: the “Stabilizing effect on BSA folded structure (ΔTm)” value in data set [4] was “minimal shift Tm”. Also, the “Log Kow (predicted average)” value in data set [2] is 4.94. Moreover, the half-life in the data set with cattle is 39 to 120 days.
As for `CCCCCCCC(=O)O` [OA, Octanoic acid], the “Log Kow (predicted average)” value in data set [2] was 2.99. Further, the “Log Kow (experimental average)” value in data set [3] was 3.05.
For `O=C(O)C(F)(F)C(F)(F)C(F)(F)C(F)(F)C(F)(F)C(F)(F)C(F)(F)C(F)(F)F` [PFNA, Perfluorononanoic acid], in data set [4], the “Tm of BSA with ligand” value fell in the range of 69 to 71 °C and the “Stabilizing effect on BSA folded structure (ΔTm)” value was “greatest stabilizing effect”. For the same compound, the “Temperature dependence of KHill (Hill association constant)” value (“Temperature dependence of KHill” for short) in data set [5] is on record as “increasing with temperature”. In addition, in data set [2], the “Log Kow (predicted average)” value is 6.51. For the same compound, the “Log Kow (experimental average)” value in data set [3] is recorded as 3.54.
Turning to `O=S(=O)([O-])C(F)(F)C(F)(F)C(F)(F)C(F)(F)F.[Na+]` [PFBS, Sodium perfluorobutylsulfonate], the “Ka (association constant)” value in data set [1] is 2.08 (0.61) 10^4 M^−1. Besides, the “Stabilizing effect on BSA folded structure (ΔTm)” value in data set [4] is “little stabilization”. The “Log Kow (predicted average)” value in data set [2] is 2.20.
In data set [1], `O=C(O)C(F)(F)C(F)(F)C(F)(F)C(F)(F)C(F)(F)C(F)(F)C(F)(F)F` [PFOA, Perfluorooctanoic acid] had a Kd of 41 µM. The “Tm of BSA with ligand” value in data set [4] (setting [6]) was 69 to 71 °C. The “Temperature dependence of KHill” value in data set [5] was “increasing with temperature”. Further, the “Log Kow (predicted average)” value in data set [2] is listed as 5.68. Moreover, in data set [3], the “Log Kow (experimental average)” value was 3.10.
Take `O=C(O)C(F)(F)C(F)(F)C(F)(F)C(F)(F)C(F)(F)C(F)(F)C(F)(F)C(F)(F)C(F)(F)F` [PFDA, Perfluorodecanoic acid]: in data set [1], the “Ka (association constant)” value was 0.33 (0.26) 10^4 M^−1. Further, the “Stabilizing effect on BSA folded structure (ΔTm)” value in data set [4] was “no measurable protein stabilization”. Besides, the “Temperature dependence of KHill” value in data set [5] is given as “increasing with temperature”. Further, the “Log Kow (predicted average)” value in data set [2] was 7.32. For the same compound, in data set [3], the “Log Kow (experimental average)” value is reported as 4.15.
The compound `O=C(O)C(F)(OC(F)(F)C(F)(F)C(F)(F)F)C(F)(F)F` (stereo not drawn) [GenX, Perfluoro-2-methyl-3-oxahexanoic acid] had a Kd in data set [1] of 50.5 µM. Also, in data set [4], the “Stabilizing effect on BSA folded structure (ΔTm)” value is given as “little stabilization”. In addition, the “Temperature dependence of KHill” value in data set [5] was “does not change with temperature”. Further, in data set [2], the “Log Kow (predicted average)” value is on record as 5.41.

These data come from publication PMC10948889, “Differential scanning fluorimetry to assess PFAS binding to bovine serum albumin protein” (Scientific Reports, 2024).
